Test results: patent US20110130346A1, “PEPTIDE CONJUGATES FOR DELVERY OF BIOLOGICALLY ACTIVE COMPOUNDS” (ISIS INNOVATION LIMITED, priority 2008, published 2011)
Entries after “also recorded” stand apart in the source; their conditions may differ.

Columns and labels:
[1] = system: glucose transporters; assay: Example 3: glucose transporter inhibitors and hexose analogues in glucose-enhanced 2′OMePS AO uptake into TA muscle; format: in vivo; details: 8 week old mdx mice; for effect of sugar or analogue used in place of D-glucose in 2′OMePS AO formulation on dystrophin-positive fibres: same concentration as D-glucose, intramuscular, two weeks; for effect of inhibitor on the enhancing effect of 5% D-glucose formulation of 2′OMePS AO: intramuscular into TA
Source text: To investigate whether carrier-mediated glucose uptake might be implicated in the mechanism of enhanced AO uptake into muscle, we examined the effects of a range of glucose concentrations using glucose-formulated 2′OMePS AOs. This was studied again via intramuscular administration into 8 week old mdx mice. […] The activity of glucose transporters is known to be stereospecific in that only D-glucose isomers can be actively transported. To further test the idea carrier-mediated glucose uptake might be implicated in the mechanism and to rule out possible osmotic effects of the glucose formulation we investigated the activities of D- and L-glucose isomers in AO formulations. The same concentration of L-glucose was formulated with 2′OMePS AOs and delivered to 8 week old mdx mice by local intramuscular injection.
To investigate whether specific glucose transporters might be implicated directly in the mechanism of enhanced AO uptake we tested whether or not various inhibitors of glucose transporter function could abolish the enhanced uptake of 2′OMePS AOs into TA muscles in 8 week old mdx mice. Two inhibitor compounds, phloretin and phloridzin, are well-characterised inhibitors of glucose transport. […] That enhanced AO uptake and activity was dependent on a phloretin-sensitive pathway, is a hallmark of involvement of the GLUT family of facilitative glucose transporters. Given that glucose transporter-mediated glucose uptake appeared mechanistically important, we further investigated this by studying whether any products of intracellular glucose metabolism might be implicated downstream in the uptake mechanism. To do this we investigated a glucose analogue, 3-O-methyl glucose (3-OMG) that is effectively transported by glucose transporters but not subject to phosphorylation by glucokinase by using the same concentration of 3-OMG formulated with 2′OMePS AO. Two weeks following intramuscular injection TA muscles cryosections were assayed by immunohistochemistry.
For intramuscular studies the TA muscle of each experimental mdx mouse was injected with a 40 μl dose of PNA and PNA-peptide conjugates with saline at a final concentration of 125 μg/ml, and the contralateral muscle was injected with saline. For systemic intravenous injections, X μg PNA or PNA-peptide conjugates in 80 μl saline buffer were injected into tail vein of mdx mice at the final dose of 25 mg/kg and 6 mg/kg, respectively. The animals were killed at various time points after injection by CO2 inhalation and tissues were removed and snap-frozen in liquid nitrogen-cooled isopentane and stored at −80° C.
Sections of 8 μm were cut from at least two-thirds of the muscle length of TA, quadriceps, gastrocnemius, biceps, abdominal wall and diaphragm muscles and cardiac muscle at 100 μm intervals. The sections were then examined for dystrophin expression with a polyclonal antibody 2166 against the dystrophin carboxyl-terminal region. The maximum number of dystrophin-positive fibres in one section was counted using the Zeiss AxioVision fluorescence microscope. The intervening muscle sections were collected either for RT-PCR analysis and Western blot or as serial sections for immunohistochemistry. Polyclonal antibodies were detected by goat-anti-rabbit IgGs Alexa Fluro 594 (Molecular Probe, UK). Routine haematoxylin and eosin staining was used to examine overall muscle morphology and assess the level of infiltrating mononuclear cells. The serial sections were also stained with a panel of polyclonal and monoclonal antibodies for the detection of DAPC protein components. Rabbit polyclonal antibody to neuronal nitric oxide synthase (nNOS) and mouse monoclonal antibodies to β dystroglycan, α-sarcoglycan and β-sarcoglycan were used according to manufacturer's instructions (Novocastra, UK). Polyclonal antibodies were detected by goat-anti-rabbit IgGs Alexa 594 and the monoclonal antibodies by goat-anti-mouse IgGs Alexa 594 (Molecular Probe, UK). […]

[2] = system: exon and intron 23 of the dystrophin gene; assay: Example 1: intramuscular injection into TA muscle of mdx mice, count of dystrophin-positive fibres by immunohistochemistry; format: in vivo; details: for dose dependence of dystrophin induction: 5 μg, 10 μg and 20 μg intramuscular; for number of dystrophin-positive fibres per TA muscle: 20 μg intramuscular
Protocol: Three age groups of mdx mice were used: 20-21 days (referred to as 3 weeks; five mice for each test and control groups), 2-month old (five mice for test groups and control groups), and 5-6 months (referred to 6 months, six mice for each testing and control group). Mice were killed by cervical dislocation at desired time points, and muscles were snap-frozen in liquid nitrogen-cooled isopentane and stored at −80° C.
One tibialis anterior (TA) muscle of each experimental mdx mouse was injected with a 40 μl dose (3-week-old group injected with 10 μl) of PNA-peptide conjugates with saline at a final concentration of 125 μg/ml, and the contralateral muscle was injected with saline. The animals were sacrificed at various time points after injection, the muscles were removed and snap-frozen in liquid nitrogen-cooled isopentane and stored at −80° C. To examine the dose-response profile, 2-month old mdx mice received the injections of 10 μg and 20 μg of PNA-peptide conjugates.
Sections of 8 μm were cut from at least two-thirds of muscle length of TA muscles at 100 μm intervals. The sections were then examined for dystrophin expression with a polyclonal antibody 2166 against the dystrophin carboxyl-terminal dystrophin. The maximum number of dystrophin-positive fibres in one section was counted using the Zeiss AxioVision fluorescence microscope. The intervening muscle sections were collected either for Western blot or as serial sections for immunohistochemistry. Polyclonal antibodies were detected by goat-anti-rabbit IgGs Alexa Fluro 594 (Molecular probe). Routine H&E staining was used to examine overall muscle morphology and assess the level of infiltrating mononuclear cells.

[3] = system: exon 23 of the dystrophin transcript; assay: RT-PCR of exon 23 skipping after lipofectin transfection of H2K mdx cells; format: cell-based, mouse; details: 250 nm
Protocol: The H2K mdx myoblasts were cultured at 33° C. under a 10% CO2/90% air atmosphere in high-glucose DMEM supplemented with 20% fetal calf serum, 0.5% chicken embryo extract (PAA laboratories Ltd, Yeovil, UK), and 20 units/ml γ-interferon (Roche applied science, Penzberg, Germany). Cells were then treated with trypsin and plated at 2×10^4 cells per well in 24-well plates coated with 200 ug/ml gelatine (Sigma). H2K mdx cells were transfected 24 h after trypsin treatment in a final volume of 0.5 ml of antibiotic- and serum-free Opti-MEM (Life Technologies). Each well was treated with 250 nM of PNA-peptide complexed with corresponding amounts of lipofectin (weight ratio 1:2=oligolipofectin) (Life Technologies) according to the supplier's instructions. After 4 h of incubation, the transfection medium was replaced with DMEM supplemented medium.
Cells were transfected as triplicate wells with Lipofectin-Oligonucleotide complexes and total cellular RNA was then extracted 24 h after transfection with RNAeasy mini kit (Qiagen) and 200 ng of RNA template was used for 20 μl RT-PCR with OneStep RT-PCR kit (Qiagen, West Sussex, UK). The primer sequences for the initial RT-PCR were Exon20Fo 5′-[…]-3′ (SEQ ID NO: 125) and Ex26Ro 5′-[…]-3′ (SEQ ID NO: 126) for amplification of mRNA from exons 20 to 26. The cycling conditions were 95° C. for 30 sec, 55° C. for lmin, and 72° C. for 2 min for 30 cycles. […]

[4] = 2-month old mdx mice, 5 μg intramuscular
[5] = 2-month old mdx mice, single 5 μg intramuscular injection into TA, two weeks

OCC1OC(O)CC(O)C1O (stereo not drawn) [2-DG]
effect of sugar or analogue used in place of D-glucose in 2′OMePS AO formulation on dystrophin-positive fibres [1]: abolished

CO[C@@H]([C@H](O)[C@H](O)CO)[C@@H](O)C=O [3-OMG, 3-O-methyl glucose]
effect of sugar or analogue used in place of D-glucose in 2′OMePS AO formulation on dystrophin-positive fibres [1]: decrease in the number of dystrophin-positive fibres

CO[C@H]1O[C@H](CO)[C@H](O)[C@H](O)[C@H]1O [AMG]
effect of sugar or analogue used in place of D-glucose in 2′OMePS AO formulation on dystrophin-positive fibres [1]: abolished

O=C[C@H](O)[C@@H](O)[C@@H](O)[C@H](O)CO [D-galactose]
effect of sugar or analogue used in place of D-glucose in 2′OMePS AO formulation on dystrophin-positive fibres [1]: replicated

O=C[C@@H](O)[C@@H](O)[C@H](O)[C@H](O)CO [D-mannose]
effect of sugar or analogue used in place of D-glucose in 2′OMePS AO formulation on dystrophin-positive fibres [1]: replicated

O=C[C@@H](O)[C@H](O)[C@@H](O)[C@@H](O)CO [L-glucose]
effect of sugar or analogue used in place of D-glucose in 2′OMePS AO formulation on dystrophin-positive fibres [1]: significant decrease in number of dystrophin-positive myofibres

O=C(CCc1ccc(O)cc1)c1c(O)cc(O)cc1O [phloretin]
effect of inhibitor on the enhancing effect of 5% D-glucose formulation of 2′OMePS AO [1]: completely abolished

O=C(CCc1ccc(O)cc1)c1c(O)cc(O)cc1O[C@@H]1O[C@H](CO)[C@@H](O)[C@H](O)[C@H]1O [phloridzin]
effect of inhibitor on the enhancing effect of 5% D-glucose formulation of 2′OMePS AO [1]: partially but significantly abolished

ASSLNIA-S-S-Lggccaaacctcggcttacct [MSP]
dystrophin-positive fibres observed (in words) [2, 4]: large number of dystrophin-positive fibres
focal areas with strong dystrophin-positive muscle fibres [2, 4]: observed
dose dependence of dystrophin induction ([2]; 2-month old mdx mice): not significant
number of dystrophin-positive fibres ([2]; 6-month old mdx mice, single 5 μg intramuscular): 237±58

IVADNLQQQNTAPQIGTVNSQ-S-S-Lggccaaacctcggcttacct [AAV8]
removal of exon 23 from the dystrophin transcript (RT-PCR) [3]: efficient removal of exon 23
dystrophin-positive fibres observed (in words) [2, 4]: large number of dystrophin-positive fibres
dose dependence of dystrophin induction ([2]; 2-month old mdx mice): significant difference between 10 μg and 5 μg injection; also recorded: no further increase
number of dystrophin-positive fibres ([2]; 2-month old mdx mice, 10 μg intramuscular (printed 'bug')): 308±20
number of dystrophin-positive fibres per TA muscle ([2]; 2-month old mdx mice): 282±63
number of dystrophin-positive fibres [2, 5]: 171±40

TVAVNLQSSSTDPATGDVHVM-S-S-Lggccaaacctcggcttacct [AAV6]
dystrophin-positive fibres in 3-week and 6-month old mice in comparison with 2-month old mice ([2]; 5 μg intramuscular): slightly fewer dystrophin-positive fibres
dystrophin-positive fibres observed (in words) [2, 4]: large number of dystrophin-positive fibres
focal areas with strong dystrophin-positive muscle fibres [2, 4]: observed
dose dependence of dystrophin induction ([2]; 2-month old mdx mice): significant difference between 20 μg and 5, 10 μg injection
number of dystrophin-positive fibres per TA muscle ([2]; 2-month old mdx mice): 424 (±86)
number of dystrophin-positive fibres [2, 5]: 251
